Results published in BindingDB's records for doi:10.1021/ml300471d (Genfit, 2013).

Target: T1, Nuclear receptor ROR-alpha (Homo sapiens, UniProt P35398)
T1 sequence (P35398 whole entry): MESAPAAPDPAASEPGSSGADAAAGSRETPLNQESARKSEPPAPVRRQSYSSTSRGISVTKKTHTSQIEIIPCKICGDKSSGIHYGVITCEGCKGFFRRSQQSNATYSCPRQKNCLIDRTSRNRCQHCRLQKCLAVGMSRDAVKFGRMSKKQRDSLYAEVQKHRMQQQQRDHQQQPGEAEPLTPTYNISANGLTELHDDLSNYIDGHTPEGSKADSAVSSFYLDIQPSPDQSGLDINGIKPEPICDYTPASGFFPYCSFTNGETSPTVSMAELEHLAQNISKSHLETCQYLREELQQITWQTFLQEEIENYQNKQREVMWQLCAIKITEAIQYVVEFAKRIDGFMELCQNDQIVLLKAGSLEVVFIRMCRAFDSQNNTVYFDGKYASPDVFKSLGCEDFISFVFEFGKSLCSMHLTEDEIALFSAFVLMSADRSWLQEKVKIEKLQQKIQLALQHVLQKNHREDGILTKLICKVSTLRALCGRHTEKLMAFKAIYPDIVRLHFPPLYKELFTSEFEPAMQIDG
Test: Partial agonist activity at GST-fussed RORalpha (unknown origin) assessed as recruitment of TIF2-BAP protein after overnight incubation by pull down assay

| EC50 | Compound |
| --- | --- |
| > 30 µM | CCOC(=O)C1C(CC)=NC(=O)NC1c1ccc(OCc2ccccc2)c(OC)c1 (stereo unspecified) |
| > 30 µM | COc1cc(C2NC(=O)N=C(C)C2C(=O)OCc2ccccc2)ccc1OCc1ccccc1 (stereo unspecified) |
| > 30 µM | CCOC(=O)C1C(C)=NC(=O)N(C)C1c1ccc(OCc2ccccc2)c(OC)c1 (stereo unspecified) |
| > 30 µM | COc1cc(C2NC(=O)N=C(C)C2C(=O)OCC(F)(F)F)ccc1OCc1ccccc1 (stereo unspecified) |
| > 30 µM | COc1cc(C2NC(=O)N=C(C)C2C(=O)OCCSC)ccc1OCc1ccccc1 (stereo unspecified) |
| > 30 µM | CC1=NC(=O)NC(c2ccc(OCc3ccccc3)cc2)C1C(=O)OCC(F)(F)F (stereo unspecified) |
